Format in all cases: functional, organism-based
Test [1] concerns Plasmodium falciparum. Description: In vitro antimalarial activity against Plasmodium falciparum W2; Not significant.
In test [2] the test system is Plasmodium falciparum. The experiment in a line: In vitro antimalarial activity against Plasmodium falciparum D6; Not significant.
In test [3] the test system is Plasmodium falciparum. Description: In vitro antimalarial activity against Plasmodium falciparum D6.
In test [4] the test system is Plasmodium falciparum. Description: In vitro antimalarial activity against Plasmodium falciparum W2.

Our source for the IC50 values is ChEMBL document CHEMBL1150454, “Synthesis, bioactivity, and DNA-cleaving ability of desferrioxamine B-nalidixic acid and anthraquinone carboxylic acid conjugates” (Bioorg Med Chem Lett, 1995).

Values after ≈ are worked out from the molar mass of the structure shown.

For `CC(=O)N(O)CCCCCNC(=O)CCC(=O)N(O)CCCCCNC(=O)CCC(=O)N(O)CCCCCNC(=O)c1ccc2c(c1)C(=O)c1ccccc1C2=O`, the IC50 result in the test on Plasmodium falciparum [1] and with Plasmodium falciparum [2] was “Not Active” in each case.
As for `CCn1cc(C(=O)NCCCCCN(O)C(=O)CCC(=O)NCCCCCN(O)C(=O)CCC(=O)NCCCCCN(O)C(C)=O)c(=O)c2ccc(C)nc21`, the IC50 in the test on Plasmodium falciparum [3] and in the test on Plasmodium falciparum [4] was roughly 0.6 µg/mL (≈ 0.774 µM) throughout.
